Assay results published in ChEMBL document CHEMBL1201862, “PubChem BioAssay data set” (2004).
Calls of active or inactive are those of the source.

What was measured:
CAAX prenyl protease 2 [1] = target: T1, CAAX prenyl protease 2 (Homo sapiens, UniProt Q9Y256); test: inhibition of Ras-converting CAAX protease Rce1 – biochemical, yeast membranes, quenched-peptide fluorescence, cherry-pick, dose response (AID 588849)
T1 sequence (Q9Y256 whole entry): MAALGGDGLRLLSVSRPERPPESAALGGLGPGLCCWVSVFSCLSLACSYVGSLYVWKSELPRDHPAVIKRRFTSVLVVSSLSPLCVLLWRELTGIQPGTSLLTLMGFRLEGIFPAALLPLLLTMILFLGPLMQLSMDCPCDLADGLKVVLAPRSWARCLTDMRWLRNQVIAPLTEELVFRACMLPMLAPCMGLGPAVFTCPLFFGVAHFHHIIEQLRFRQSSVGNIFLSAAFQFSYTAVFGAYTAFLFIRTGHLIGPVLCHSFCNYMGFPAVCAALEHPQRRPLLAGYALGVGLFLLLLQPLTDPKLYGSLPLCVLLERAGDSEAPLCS

[2] = M. tuberculosis H37Rv growth inhibitors, H37Rv strain (AID 1626); type: functional
HeLa = test: ATP-based viability loss in HeLa cells – cell-based, CellTiter-Glo luminescence, cherry-pick samples, cytotoxicity control for MITF activator project, dose response (AID 540259); type: functional; conditions: Homo sapiens
Mu-type opioid receptor = Mu-type opioid receptor (Homo sapiens, UniProt P35372); test: Counterscreen for agonists of heterodimerization of the mu 1 (OPRM1) and delta 1 (OPRD1) opioid receptors: Luminescence-based cell-based high throughput dose response assay to identify agonists of OPRM1 homodimerization.; type: functional;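 note: U2OS cells expressing OPRM1 and beta-arrestin as split beta-galactosidase partners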
Sequence of Mu-type opioid receptor (P35372 whole entry): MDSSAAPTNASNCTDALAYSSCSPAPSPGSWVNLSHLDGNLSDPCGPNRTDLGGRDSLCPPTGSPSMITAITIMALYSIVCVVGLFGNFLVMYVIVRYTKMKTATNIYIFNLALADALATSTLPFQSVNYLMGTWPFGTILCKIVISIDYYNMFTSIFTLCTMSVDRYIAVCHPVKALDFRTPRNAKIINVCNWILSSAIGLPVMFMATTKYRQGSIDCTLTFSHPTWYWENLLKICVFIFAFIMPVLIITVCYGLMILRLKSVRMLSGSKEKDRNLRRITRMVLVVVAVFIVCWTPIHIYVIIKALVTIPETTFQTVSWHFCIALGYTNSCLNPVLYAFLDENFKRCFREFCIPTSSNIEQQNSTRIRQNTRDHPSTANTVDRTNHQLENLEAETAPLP

[3] = target: Delta-type opioid receptor (Homo sapiens, UniProt P41143); test: Counterscreen for agonists of heterodimerization of the mu 1 (OPRM1) and delta 1 (OPRD1) opioid receptors: Luminescence-based cell-based high throughput dose response assay to identify agonists of OPRD1 homodimerization. [Related pubchem assays (depositor defined):AID504326, AID504355, AID504692, AID504904, AID504905]; type: functional
Sequence of Delta-type opioid receptor (P41143 whole entry): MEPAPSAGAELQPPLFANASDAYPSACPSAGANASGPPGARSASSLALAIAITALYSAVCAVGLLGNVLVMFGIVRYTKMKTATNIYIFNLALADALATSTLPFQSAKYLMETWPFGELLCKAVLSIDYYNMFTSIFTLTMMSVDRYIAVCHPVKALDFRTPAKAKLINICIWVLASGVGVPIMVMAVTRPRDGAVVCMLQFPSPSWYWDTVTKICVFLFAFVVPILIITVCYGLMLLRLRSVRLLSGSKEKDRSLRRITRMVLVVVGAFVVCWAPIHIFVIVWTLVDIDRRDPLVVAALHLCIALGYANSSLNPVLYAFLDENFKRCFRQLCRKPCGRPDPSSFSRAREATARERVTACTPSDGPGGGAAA

[4] = target: 5-hydroxytryptamine receptor 5A (Homo sapiens, UniProt P47898); test: Counterscreen for agonists of OPRM1-OPRD1 heterodimerization: luminescence-based cell-based high throughput dose response assay to identify agonists of 5-hydroxytryptamine (serotonin) 5A receptor (HTR5A). [Related pubchem assays (depositor defined):AID504326, AID504355, AID504692, AID504904, AID504905]; type: functional
Sequence of 5-hydroxytryptamine receptor 5A (P47898 whole entry): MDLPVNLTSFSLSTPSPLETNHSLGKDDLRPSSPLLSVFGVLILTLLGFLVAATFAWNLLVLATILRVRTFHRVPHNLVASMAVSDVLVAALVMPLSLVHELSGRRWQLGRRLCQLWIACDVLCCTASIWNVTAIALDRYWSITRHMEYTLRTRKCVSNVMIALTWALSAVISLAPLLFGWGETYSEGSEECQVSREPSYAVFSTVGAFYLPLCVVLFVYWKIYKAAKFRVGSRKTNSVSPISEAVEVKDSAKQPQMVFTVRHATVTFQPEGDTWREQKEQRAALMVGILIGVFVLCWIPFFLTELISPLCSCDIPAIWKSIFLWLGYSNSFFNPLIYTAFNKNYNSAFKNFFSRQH

[5] = target: Voltage-gated inwardly rectifying potassium channel KCNH2 (Homo sapiens, UniProt Q12809); conditions: Potency;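 note: confirmatory quantitative high-throughput screen measuring inhibition of hERG channel activity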
Sequence of Voltage-gated inwardly rectifying potassium channel KCNH2 (Q12809 whole entry): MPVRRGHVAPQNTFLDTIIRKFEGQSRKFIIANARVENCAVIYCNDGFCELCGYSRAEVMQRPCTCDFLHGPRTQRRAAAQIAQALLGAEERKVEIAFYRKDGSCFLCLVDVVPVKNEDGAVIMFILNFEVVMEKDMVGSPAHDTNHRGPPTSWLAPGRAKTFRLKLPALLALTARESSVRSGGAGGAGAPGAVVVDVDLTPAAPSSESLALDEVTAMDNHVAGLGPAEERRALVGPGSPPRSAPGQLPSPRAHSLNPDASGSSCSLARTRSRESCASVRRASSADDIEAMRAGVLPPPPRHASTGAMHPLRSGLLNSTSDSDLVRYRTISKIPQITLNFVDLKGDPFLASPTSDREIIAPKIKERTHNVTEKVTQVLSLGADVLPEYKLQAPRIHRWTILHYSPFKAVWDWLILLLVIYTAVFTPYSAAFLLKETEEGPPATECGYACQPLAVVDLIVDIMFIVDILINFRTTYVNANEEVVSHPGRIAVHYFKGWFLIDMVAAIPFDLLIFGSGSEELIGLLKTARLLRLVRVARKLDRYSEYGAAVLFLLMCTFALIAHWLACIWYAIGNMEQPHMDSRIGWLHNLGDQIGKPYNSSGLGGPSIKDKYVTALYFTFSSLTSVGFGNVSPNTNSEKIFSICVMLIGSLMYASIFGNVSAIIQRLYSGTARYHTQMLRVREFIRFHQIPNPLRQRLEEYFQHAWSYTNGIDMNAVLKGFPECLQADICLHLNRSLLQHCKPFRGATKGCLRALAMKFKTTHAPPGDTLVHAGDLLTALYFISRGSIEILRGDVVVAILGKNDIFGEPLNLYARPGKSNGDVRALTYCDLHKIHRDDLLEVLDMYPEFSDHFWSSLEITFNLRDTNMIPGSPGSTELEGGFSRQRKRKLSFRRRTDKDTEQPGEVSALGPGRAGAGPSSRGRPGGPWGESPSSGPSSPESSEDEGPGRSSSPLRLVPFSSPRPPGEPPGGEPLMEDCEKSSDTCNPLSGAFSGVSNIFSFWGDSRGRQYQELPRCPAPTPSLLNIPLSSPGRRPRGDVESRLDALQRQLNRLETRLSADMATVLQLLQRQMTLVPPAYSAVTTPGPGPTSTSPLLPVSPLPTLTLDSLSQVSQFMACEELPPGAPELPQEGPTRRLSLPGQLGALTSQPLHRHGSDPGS

CAAX prenyl protease 2 [6] = target: T2, CAAX prenyl protease 2 (Saccharomyces cerevisiae S288c, UniProt Q03530); type: biochemical
T2 sequence (Q03530 whole entry): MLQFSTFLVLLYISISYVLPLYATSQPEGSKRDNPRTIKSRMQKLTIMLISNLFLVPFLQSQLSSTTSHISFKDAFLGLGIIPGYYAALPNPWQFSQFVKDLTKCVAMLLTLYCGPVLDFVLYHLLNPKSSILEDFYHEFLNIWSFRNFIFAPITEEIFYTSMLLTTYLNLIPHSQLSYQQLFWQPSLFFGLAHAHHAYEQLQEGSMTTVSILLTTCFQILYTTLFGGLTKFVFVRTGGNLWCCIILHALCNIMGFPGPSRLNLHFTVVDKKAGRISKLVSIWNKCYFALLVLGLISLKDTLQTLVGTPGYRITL

Bcl-2-related protein A1 = target: T3, Bcl-2-related protein A1 (Mus musculus, UniProt Q07440); type: functional;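 note: confirmatory dose–response counterscreen on Bfl-1, used to check hits from a UBC13 polyubiquitin inhibitor campaign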
T3 sequence (Q07440 whole entry): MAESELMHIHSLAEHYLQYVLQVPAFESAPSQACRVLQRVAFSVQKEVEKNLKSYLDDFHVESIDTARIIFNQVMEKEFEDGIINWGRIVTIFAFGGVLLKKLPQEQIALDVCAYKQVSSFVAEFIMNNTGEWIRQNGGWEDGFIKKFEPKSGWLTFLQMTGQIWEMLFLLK

[7] = target: T4, Ubiquitin-conjugating enzyme E2 N (Homo sapiens, UniProt P61088); type: functional
T4 sequence (P61088 whole entry): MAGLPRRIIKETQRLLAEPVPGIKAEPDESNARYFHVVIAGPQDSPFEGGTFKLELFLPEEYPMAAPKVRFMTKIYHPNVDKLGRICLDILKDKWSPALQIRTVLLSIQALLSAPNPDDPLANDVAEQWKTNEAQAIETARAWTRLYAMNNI

[8] = target: T5, Endoribonuclease toxin MazF (Escherichia coli K-12, UniProt P0AE70); test: activation of MazEF endoribonuclease cleavage – biochemical, fluorescence, single-stranded RNA substrate, uHTS hits, dose response (AID 588481); type: functional
T5 sequence (P0AE70 whole entry): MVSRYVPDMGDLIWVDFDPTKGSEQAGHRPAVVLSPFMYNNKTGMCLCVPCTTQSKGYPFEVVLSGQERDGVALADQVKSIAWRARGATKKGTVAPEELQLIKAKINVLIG

[9] = target: T5, Endoribonuclease toxin MazF; test: substrate-only fluorescence increase artefacts – biochemical, single-stranded RNase substrate, counter-screen for MazEF activator project, dose response (AID 588502); type: functional
[10] = target: T4, Ubiquitin-conjugating enzyme E2 N; type: functional; remark: listed apart in the source
[11] = target: T6, Zinc finger protein mex-5 (Caenorhabditis elegans, UniProt Q9XUB2); test: potency of MEX-5 RNA-binding blockers – biochemical, C. elegans, fluorescence polarization, dose response (AID 1960)
T6 sequence (Q9XUB2 whole entry): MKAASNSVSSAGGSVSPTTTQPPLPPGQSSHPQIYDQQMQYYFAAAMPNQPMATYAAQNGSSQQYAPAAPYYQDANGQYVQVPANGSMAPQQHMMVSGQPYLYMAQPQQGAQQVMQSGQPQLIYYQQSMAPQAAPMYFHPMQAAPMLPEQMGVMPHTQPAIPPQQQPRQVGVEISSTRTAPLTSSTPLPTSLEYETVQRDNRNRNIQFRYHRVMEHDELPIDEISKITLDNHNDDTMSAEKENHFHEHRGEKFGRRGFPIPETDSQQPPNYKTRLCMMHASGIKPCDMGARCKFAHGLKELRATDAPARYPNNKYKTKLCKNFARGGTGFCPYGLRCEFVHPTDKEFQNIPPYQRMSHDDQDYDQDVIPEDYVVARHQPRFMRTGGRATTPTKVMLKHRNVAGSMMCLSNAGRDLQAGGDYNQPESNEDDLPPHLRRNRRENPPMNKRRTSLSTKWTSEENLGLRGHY

[12] = target: T7, RNA-binding protein pos-1 (Caenorhabditis elegans, UniProt G5EF15); test: disruptors of C. elegans POS-1 RNA interaction – biochemical, fluorescence polarization, dose response (AID 1964);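 note: purified POS-1 fused to maltose binding protein made in E. coli; potency of compounds blocking POS-1 binding to fluorescent RNA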
T7 sequence (G5EF15 whole entry): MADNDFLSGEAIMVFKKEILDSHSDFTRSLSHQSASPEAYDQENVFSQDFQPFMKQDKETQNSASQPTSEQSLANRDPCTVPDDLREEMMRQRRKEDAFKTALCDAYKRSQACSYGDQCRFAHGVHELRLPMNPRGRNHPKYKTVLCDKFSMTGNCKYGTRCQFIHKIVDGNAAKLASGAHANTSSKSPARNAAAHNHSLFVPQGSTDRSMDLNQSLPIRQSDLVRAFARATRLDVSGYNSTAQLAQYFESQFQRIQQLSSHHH

[13] = target: T8, Carboxy-terminal domain RNA polymerase II polypeptide A small phosphatase 1 (Homo sapiens, UniProt Q9GZU7); test: CTDSP1 inhibitors, concentration-response, biochemical, absorbance readout, ultra-high-throughput screen actives (AID 540297); type: functional
T8 sequence (Q9GZU7 whole entry): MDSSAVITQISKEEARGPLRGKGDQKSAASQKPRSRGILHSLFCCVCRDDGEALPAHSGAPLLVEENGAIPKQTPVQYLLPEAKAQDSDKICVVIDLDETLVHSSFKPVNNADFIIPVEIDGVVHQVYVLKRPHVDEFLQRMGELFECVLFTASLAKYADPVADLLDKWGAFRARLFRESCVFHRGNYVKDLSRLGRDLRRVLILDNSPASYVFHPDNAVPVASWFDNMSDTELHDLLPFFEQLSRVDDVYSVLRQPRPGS

[14] = target: 72 kDa type IV collagenase (Homo sapiens, UniProt P08253); test: Dose Response validation of uHTS RPN11 inhibitor hits using a MMP-2 Fluorescence assay.; type: functional
Sequence of 72 kDa type IV collagenase (P08253 whole entry): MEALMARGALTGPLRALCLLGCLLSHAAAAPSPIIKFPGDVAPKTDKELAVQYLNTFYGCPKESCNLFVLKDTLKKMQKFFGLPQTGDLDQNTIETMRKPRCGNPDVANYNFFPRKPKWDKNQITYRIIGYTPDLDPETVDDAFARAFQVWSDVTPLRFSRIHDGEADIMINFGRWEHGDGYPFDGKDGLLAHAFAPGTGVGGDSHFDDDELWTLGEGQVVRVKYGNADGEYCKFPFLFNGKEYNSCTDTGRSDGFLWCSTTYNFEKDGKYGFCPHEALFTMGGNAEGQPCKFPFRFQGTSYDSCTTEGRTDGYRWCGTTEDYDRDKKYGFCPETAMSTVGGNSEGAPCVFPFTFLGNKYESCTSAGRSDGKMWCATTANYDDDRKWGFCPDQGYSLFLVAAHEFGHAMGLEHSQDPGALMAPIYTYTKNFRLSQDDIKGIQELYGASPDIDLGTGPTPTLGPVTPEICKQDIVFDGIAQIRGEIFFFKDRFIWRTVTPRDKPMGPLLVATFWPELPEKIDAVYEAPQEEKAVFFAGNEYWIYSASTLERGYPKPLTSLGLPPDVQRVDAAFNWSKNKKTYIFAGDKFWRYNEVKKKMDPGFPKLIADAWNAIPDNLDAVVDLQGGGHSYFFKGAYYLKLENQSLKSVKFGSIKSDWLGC

[15] = target: T9, Low molecular weight phosphotyrosine protein phosphatase (Homo sapiens, UniProt P24666); type: functional; conditions: read-out: IC50_Mean
T9 sequence (P24666 whole entry): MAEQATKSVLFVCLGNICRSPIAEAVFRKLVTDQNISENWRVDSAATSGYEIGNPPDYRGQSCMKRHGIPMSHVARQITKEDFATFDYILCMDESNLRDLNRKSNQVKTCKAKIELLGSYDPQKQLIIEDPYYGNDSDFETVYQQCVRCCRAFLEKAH

[16] = target: 26S proteasome non-ATPase regulatory subunit 14 (Homo sapiens, UniProt O00487); test: inhibition of proteasome subunit RPN11 – biochemical, fluorescence polarization, uHTS hits, confirmation (AID 602368); type: functional
Sequence of 26S proteasome non-ATPase regulatory subunit 14 (O00487 whole entry): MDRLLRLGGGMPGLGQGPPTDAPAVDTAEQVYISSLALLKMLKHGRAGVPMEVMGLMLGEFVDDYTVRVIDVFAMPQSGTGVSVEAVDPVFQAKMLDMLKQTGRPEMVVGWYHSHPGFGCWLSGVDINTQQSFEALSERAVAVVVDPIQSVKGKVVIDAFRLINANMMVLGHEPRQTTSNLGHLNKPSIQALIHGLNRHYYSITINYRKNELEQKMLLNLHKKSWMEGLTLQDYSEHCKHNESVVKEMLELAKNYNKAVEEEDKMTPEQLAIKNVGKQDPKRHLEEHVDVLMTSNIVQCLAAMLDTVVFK

Prothrombin = Prothrombin (Bos taurus, UniProt P00735); test: thrombin protease inhibitors – biochemical, fluorescence polarization, uHTS hits, dose response (AID 602369); type: functional
[17] = target: T9, Low molecular weight phosphotyrosine protein phosphatase; type: functional; conditions: read-out: IC50_Mean; remark: listed apart in the source
Nonstructural protein 1 = Nonstructural protein 1 (Influenza A virus, UniProt Q194T2); type: functional, Influenza A virus (A/California/07/2009(H1N1))
Sequence of Nonstructural protein 1 (Q194T2 whole entry): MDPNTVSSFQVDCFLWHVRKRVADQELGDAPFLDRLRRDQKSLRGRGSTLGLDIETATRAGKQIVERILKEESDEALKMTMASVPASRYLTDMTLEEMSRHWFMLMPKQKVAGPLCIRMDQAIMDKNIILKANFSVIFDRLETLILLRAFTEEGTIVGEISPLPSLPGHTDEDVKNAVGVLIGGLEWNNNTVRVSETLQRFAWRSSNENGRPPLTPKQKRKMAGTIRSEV

[18] = target: T10, Rac GTPase-activating protein 1 (Homo sapiens, UniProt Q9H0H5); test: blockers of MgcRacGAP-driven Rac1 GTP hydrolysis – biochemical, ADP Hunter fluorescence, primary and confirmatory, confirmation (AID 624330); type: functional
T10 sequence (Q9H0H5 whole entry): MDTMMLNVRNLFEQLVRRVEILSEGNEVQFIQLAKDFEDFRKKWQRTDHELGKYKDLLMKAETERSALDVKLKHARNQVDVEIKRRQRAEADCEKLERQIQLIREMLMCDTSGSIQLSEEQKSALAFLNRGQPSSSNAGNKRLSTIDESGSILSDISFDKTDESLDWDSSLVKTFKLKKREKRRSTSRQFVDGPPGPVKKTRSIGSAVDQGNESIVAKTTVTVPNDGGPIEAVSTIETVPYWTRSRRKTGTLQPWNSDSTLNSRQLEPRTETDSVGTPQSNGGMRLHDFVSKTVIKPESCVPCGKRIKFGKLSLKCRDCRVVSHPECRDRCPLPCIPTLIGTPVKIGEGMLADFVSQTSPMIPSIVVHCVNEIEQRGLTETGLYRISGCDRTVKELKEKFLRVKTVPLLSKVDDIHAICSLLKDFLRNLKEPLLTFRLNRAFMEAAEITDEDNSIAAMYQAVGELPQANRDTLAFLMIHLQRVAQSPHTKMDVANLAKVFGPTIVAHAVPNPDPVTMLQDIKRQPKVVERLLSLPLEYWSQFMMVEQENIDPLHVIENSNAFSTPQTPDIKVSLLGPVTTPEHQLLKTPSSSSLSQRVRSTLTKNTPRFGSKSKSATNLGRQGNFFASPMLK

Cytochrome P450 3A4 = Cytochrome P450 3A4 (Homo sapiens, UniProt P08684); conditions: Potency;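 note: confirmatory qHTS run detecting inhibitors and substrates of CYP3A4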
Sequence of Cytochrome P450 3A4 (P08684 whole entry): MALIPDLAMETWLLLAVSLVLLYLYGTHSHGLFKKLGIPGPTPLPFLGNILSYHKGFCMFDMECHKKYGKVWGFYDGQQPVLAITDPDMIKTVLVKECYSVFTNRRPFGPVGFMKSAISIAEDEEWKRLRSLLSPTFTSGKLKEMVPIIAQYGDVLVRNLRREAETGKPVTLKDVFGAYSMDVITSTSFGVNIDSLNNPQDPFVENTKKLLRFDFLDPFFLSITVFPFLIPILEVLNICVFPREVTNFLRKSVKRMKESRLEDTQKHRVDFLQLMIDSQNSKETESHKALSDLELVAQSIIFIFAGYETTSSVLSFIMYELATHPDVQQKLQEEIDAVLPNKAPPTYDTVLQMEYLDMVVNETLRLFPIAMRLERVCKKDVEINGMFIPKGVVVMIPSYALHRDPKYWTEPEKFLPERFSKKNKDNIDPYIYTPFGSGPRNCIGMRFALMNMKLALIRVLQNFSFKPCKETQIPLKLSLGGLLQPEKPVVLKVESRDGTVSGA

Fc1cccc(-c2cc3nc(-c4ccccc4)cc(N4CCC5(CC4)OCCO5)n3n2)c1
AC50 (CAAX prenyl protease 2 [1]): 1.35 µM (active)
IC50 [2]: > 100 µM (active)

Cc1nnc2sc(-c3ccc(N(C)C)cc3)nn2c1=O
AC50 (HeLa): 55.2 µM (active)

CN(C(=O)Cc1ccc(Cl)c(Cl)c1)C(CN1CCCC1)c1cccc(OCC(=O)O)c1 (stereo not drawn)
EC50 (Mu-type opioid receptor): > 92.5 µM (inactive)
EC50 [3]: 17.2 µM (inactive)
EC50 [4]: > 92.5 µM (inactive)
AC50 [5]: 35.5 µM (inconclusive)

CC(=O)OC1CCC2(C)C(COc3ccc4ccc(=O)oc4c3)C(C)(O)CCC2C1(C)C (stereo not drawn)
AC50 (CAAX prenyl protease 2 [1]): 87.2 µM (active)
AC50 (CAAX prenyl protease 2 [6]): 18.1 µM (active)

O=C(CC1(O)C(=O)N(C/C=C/c2ccccc2)c2ccccc21)c1ccccn1 (stereo not drawn)
AC50 (CAAX prenyl protease 2 [1]): 59.1 µM (active)
AC50 (CAAX prenyl protease 2 [6]): 26.3 µM (active)

COc1cc(C2C(C#N)=C(N)Oc3[nH]nc(-c4cccs4)c32)cc(OC)c1O (stereo not drawn)
IC50 (Bcl-2-related protein A1): > 20 µM (inactive)
IC50 [7]: 3.38 µM (active)
EC50 [8]: > 99 µM (inactive)
EC50 [9]: 13.3 µM (active)
IC50 [10]: 1.47 µM (active)

Cn1nc(C(F)(F)F)cc1-c1ccc(/C=C(\C#N)C(=O)c2ccccc2)s1
EC50 [11]: 11.2 µM (inconclusive)
EC50 [12]: 21.1 µM (inconclusive)
EC50 [8]: > 99 µM (inactive)
EC50 [9]: > 99 µM (inactive)

O=c1c(Cl)c(N/N=C/c2ccc(Br)cc2)cnn1-c1ccccc1
IC50 [13]: > 80 µM (inactive)
IC50 [14]: > 100 µM (inactive)
IC50 [15]: > 80 µM (inactive)
IC50 [16]: 21.2 µM (active)
IC50 (Prothrombin): > 100 µM (inactive)
IC50 [17]: 21.6 µM (inactive)

CN(C)c1ccc(Cc2ccc(N(C)C)cc2)cc1
IC50 (Nonstructural protein 1): 36.6 µM (active)
AC50 [5]: 70.8 µM (inconclusive)
IC50 [18]: 73.2 µM (active)
AC50 (Cytochrome P450 3A4): 12.6 µM (inconclusive)

c1ccc(-n2ncc3c(NCc4cccs4)ncnc32)cc1
AC50 (HeLa): 55.5 µM (active)

Nc1ccc(Cc2ccc(N)c(Cl)c2)cc1Cl
AC50 [5]: 79.4 µM (inconclusive)

COc1ccc2cc(CCNC(=O)c3cccs3)c(O)nc2c1
AC50 (HeLa): 51 µM (active)
